From ChEMBL document CHEMBL1140955, “Synthesis and in vitro biological evaluation of valine-containing prodrugs derived from clinically used HIV-protease inhibitors” (Eur J Med Chem, 2008)

Tests used:
[1] = tested on: Human immunodeficiency virus 1; experiment: Antiviral activity against HIV1 LAI infected in human CEM-SS cells assessed as reverse transcriptase activity after 5 days by MTT assay; type: functional, organism-based; conditions: Human immunodeficiency virus 1, LAI, 120 h
[2] = Cytotoxicity against human CEM-SS cells after 5 days by MTT assay; type: cell-based
[3] = Cytotoxicity against human MT4 cells after 4 days by MTT assay; type: cell-based
[4] = Apparent permeability from apical to basolateral side of human Caco-2 cells at 9.4 uM in donor chamber after 3 hrs; type: ADME, cell-based; conditions: read-out: permeability
[5] = Apparent permeability from basolateral to apical side of human Caco-2 cells at 9.4 uM in donor chamber after 3 hrs; type: ADME, cell-based; conditions: read-out: permeability
Caco-2 [6] = experiment: Permeability from basolateral to apical side of human Caco-2 cells assessed as ratio of prodrug concentration in receiver to prodrug concentration in donor at 9.4 uM in donor chamber after 3 hrs; type: ADME, cell-based; conditions: caco-2, 3 h
Caco-2 [7] = experiment: Permeability from apical to basolateral side of human Caco-2 cells assessed as ratio of prodrug concentration in receiver to prodrug concentration in donor at 9.4 uM in donor chamber after 3 hrs; type: ADME, cell-based; conditions: caco-2, 3 h
[8] = tested on: Human immunodeficiency virus 1; experiment: Antiviral activity against HIV1 3B infected in human MT4 cells assessed as reverse transcriptase activity after 5 days by MTT assay; conditions: Human immunodeficiency virus 1, 3B, MT4, 120 h
[9] = Chemical stability assessed as hydrolysis half life at pH 7.3; type: physicochemical; conditions: buffer
[10] = tested on: Human immunodeficiency virus 1; experiment: Antiviral activity against HIV1 LAI infected in human CEM-SS cells assessed as ratio of IC50 for prodrug to IC50 for parent compound; type: functional
Caco-2 [11] = experiment: Permeability from apical to basolateral side of human Caco-2 cells assessed as ratio of prodrug concentration in receiver to prodrug concentration in donor at 330 uM in donor chamber after 3 hrs; type: ADME, cell-based; conditions: caco-2, 3 h
[12] = Apparent permeability from apical to basolateral side of human Caco-2 cells at 330 uM in donor chamber after 3 hrs; type: ADME, cell-based; conditions: read-out: permeability
Caco-2 [13] = experiment: Permeability from basolateral to apical side of human Caco-2 cells assessed as ratio of prodrug concentration in receiver to prodrug concentration in donor at 330 uM in donor chamber after 3 hrs; type: ADME, cell-based; conditions: caco-2, 3 h
[14] = Apparent permeability from basolateral to apical side of human Caco-2 cells at 330 uM in donor chamber after 3 hrs; type: ADME, cell-based; conditions: read-out: permeability
[15] = tested on: Human immunodeficiency virus 1; experiment: Antiviral activity against HIV1 3B infected in human MT4 cells assessed as ratio of IC50 for prodrug to IC50 for parent compound
Caco-2 [16] = experiment: Permeability from basolateral to apical side of human Caco-2 cells assessed as ratio of prodrug concentration in receiver to prodrug concentration in donor at 150 uM in donor chamber after 3 hrs; type: ADME, cell-based; conditions: caco-2, 3 h
[17] = Apparent permeability from basolateral to apical side of human Caco-2 cells at 150 uM in donor chamber after 3 hrs; type: ADME, cell-based; conditions: read-out: permeability
Caco-2 [18] = experiment: Permeability from apical to basolateral side of human Caco-2 cells assessed as ratio of prodrug concentration in receiver to prodrug concentration in donor at 21 uM in donor chamber after 3 hrs; type: ADME, cell-based; conditions: caco-2, 3 h
[19] = Apparent permeability from apical to basolateral side of human Caco-2 cells at 21 uM in donor chamber after 3 hrs; type: ADME, cell-based; conditions: read-out: permeability
Caco-2 [20] = experiment: Permeability from basolateral to apical side of human Caco-2 cells assessed as ratio of prodrug concentration in receiver to prodrug concentration in donor at 21 uM in donor chamber after 3 hrs; type: ADME, cell-based; conditions: caco-2, 3 h
[21] = Apparent permeability from basolateral to apical side of human Caco-2 cells at 21 uM in donor chamber after 3 hrs; type: ADME, cell-based; conditions: read-out: permeability
Caco-2 [22] = experiment: Permeability from apical to basolateral side of human Caco-2 cells assessed as ratio of prodrug concentration in receiver to prodrug concentration in donor at 26.5 uM in donor chamber after 3 hrs; type: ADME, cell-based; conditions: caco-2, 3 h
Caco-2 [23] = experiment: Permeability from apical to basolateral side of human Caco-2 cells assessed as ratio of prodrug concentration in receiver to prodrug concentration in donor at 177 uM in donor chamber after 3 hrs; type: ADME, cell-based; conditions: caco-2, 3 h
[24] = Apparent permeability from apical to basolateral side of human Caco-2 cells at 26.5 uM in donor chamber after 3 hrs; type: ADME, cell-based; conditions: read-out: permeability
Caco-2 [25] = experiment: Permeability from basolateral to apical side of human Caco-2 cells assessed as ratio of prodrug concentration in receiver to prodrug concentration in donor at 26.5 uM in donor chamber after 3 hrs; type: ADME, cell-based; conditions: caco-2, 3 h
Caco-2 [26] = experiment: Permeability from basolateral to apical side of human Caco-2 cells assessed as ratio of prodrug concentration in receiver to prodrug concentration in donor at 177 uM in donor chamber after 3 hrs; type: ADME, cell-based; conditions: caco-2, 3 h
[27] = Apparent permeability from basolateral to apical side of human Caco-2 cells at 26.5 uM in donor chamber after 3 hrs; type: ADME, cell-based; conditions: read-out: permeability
Caco-2 [28] = experiment: Permeability from basolateral to apical side of human Caco-2 cells assessed as ratio of prodrug concentration in receiver to prodrug concentration in donor at 185 uM in donor chamber after 3 hrs; type: ADME, cell-based; conditions: caco-2, 3 h
[29] = Apparent permeability from basolateral to apical side of human Caco-2 cells at 185 uM in donor chamber after 3 hrs; type: ADME, cell-based; conditions: read-out: permeability
[30] = Apparent permeability from apical to basolateral side of human Caco-2 cells at 177 uM in donor chamber after 3 hrs; type: ADME, cell-based; conditions: read-out: permeability
[31] = Apparent permeability from basolateral to apical side of human Caco-2 cells at 177 uM in donor chamber after 3 hrs; type: ADME, cell-based; conditions: read-out: permeability
Caco-2 [32] = experiment: Permeability from apical to basolateral side of human Caco-2 cells assessed as ratio of prodrug concentration in receiver to prodrug concentration in donor at 80 uM in donor chamber after 3 hrs; type: ADME, cell-based; conditions: caco-2, 3 h
[33] = Apparent permeability from apical to basolateral side of human Caco-2 cells at 80 uM in donor chamber after 3 hrs; type: ADME, cell-based; conditions: read-out: permeability
Caco-2 [34] = experiment: Permeability from basolateral to apical side of human Caco-2 cells assessed as ratio of prodrug concentration in receiver to prodrug concentration in donor at 80 uM in donor chamber after 3 hrs; type: ADME, cell-based; conditions: caco-2, 3 h
[35] = Apparent permeability from basolateral to apical side of human Caco-2 cells at 80 uM in donor chamber after 3 hrs; type: ADME, cell-based; conditions: read-out: permeability
[36] = Apparent permeability from apical to basolateral side of human Caco-2 cells at 175 uM in donor chamber after 3 hrs; type: ADME, cell-based; conditions: read-out: permeability
[37] = Apparent permeability from basolateral to apical side of human Caco-2 cells at 175 uM in donor chamber after 3 hrs; type: ADME, cell-based; conditions: read-out: permeability

| half-life [9] [h] | Structure (SMILES) | IC50 [1] [µM] | CC50 at 120 h [2] [µM] | CC50 at 96 h [3] [µM] | IC50 [8] [µM] | Ratio IC50 [10] | Ratio IC50 [15] | other results |
| --- | --- | --- | --- | --- | --- | --- | --- | --- |
|  | CC(C)(C)NC(=O)[C@@H]1C[C@@H]2CCCC[C@@H]2CN1C[C@@H](O)[C@H](Cc1ccccc1)NC(=O)[C@H](CC(N)=O)NC(=O)c1ccc2ccccc2n1 | 0.009 | > 10 | > 10 | 0.018 |  |  | Papp A→B at 3 h, 9.4 µM [4]: 39.8 nm/s; Papp B→A at 3 h, 9.4 µM [5]: 11 nm/s; Activity (Caco-2 [6]): 10.3%; Activity (Caco-2 [7]): 2.6% |
| 46 | CC(C)[C@H](N)C(=O)O[C@@H]1Cc2ccccc2[C@@H]1NC(=O)[C@H](Cc1ccccc1)C[C@H](O)CN1CCN(Cc2cccnc2)C[C@H]1C(=O)NC(C)(C)C.O=C(O)C(F)(F)F | 0.017 | > 100 | > 100 | 0.15 | >=1.7 | 7 | Activity (Caco-2 [11]): 15.6%; Papp A→B at 3 h, 330 µM [12]: 64.4 nm/s; Activity (Caco-2 [13]): 18.1%; Papp B→A at 3 h, 330 µM [14]: 73.7 nm/s |
| 80 | CC(C)[C@H](N)C(=O)NCCCCCC(=O)O[C@@H](C[C@@H](Cc1ccccc1)C(=O)N[C@H]1c2ccccc2C[C@H]1OC(=O)CCCCCNC(=O)[C@@H](N)C(C)C)CN1CCN(Cc2cccnc2)C[C@H]1C(=O)NC(C)(C)C.O=C(O)C(F)(F)F.O=C(O)C(F)(F)F | 0.64 | > 50 | 45 | 2.95 | >=64 | 134 | Activity (Caco-2 [16]): 2.1%; Papp B→A at 3 h, 150 µM [17]: 62.6 nm/s |
| 40 | CC(C)[C@H](N)C(=O)O[C@H](CN1C[C@H]2CCCC[C@H]2C[C@H]1C(=O)NC(C)(C)C)[C@H](Cc1ccccc1)NC(=O)[C@H](CC(N)=O)NC(=O)c1ccc2ccccc2n1.O=C(O)C(F)(F)F | 0.14 | > 10 | > 10 | 0.29 | 16 | 16 | Activity (Caco-2 [18]): 6.1%; Papp A→B at 3 h, 21 µM [19]: 23.2 nm/s; Activity (Caco-2 [20]): 9.6%; Papp B→A at 3 h, 21 µM [21]: 34.3 nm/s |
| 72 | Cc1c(OC(=O)CCCCCNC(=O)[C@@H](N)C(C)C)cccc1C(=O)N[C@@H](CSc1ccccc1)[C@H](O)CN1C[C@H]2CCCC[C@H]2C[C@H]1C(=O)NC(C)(C)C.O=C(O)C(F)(F)F | 0.094 | > 10 | 10 | 0.23 | 47 |  |  |
| 60 | CC(C)[C@@H](N)C(=O)NCCCCCC(=O)O[C@H](CN1C[C@H]2CCCC[C@H]2C[C@H]1C(=O)NC(C)(C)C)[C@H](Cc1ccccc1)NC(=O)[C@H](CC(N)=O)NC(=O)c1ccc2ccccc2n1.O=C(O)C(F)(F)F.O=C(O)C(F)(F)F.O=C(O)C(F)(F)F | 0.175 | 9 | 5.3 | 0.34 | 19 | 19 | Activity (Caco-2 [22]): 2.2%; Activity (Caco-2 [11]): 15.6%; Activity (Caco-2 [23]): 14%; Papp A→B at 3 h, 26.5 µM [24]: 5.8 nm/s; Activity (Caco-2 [25]): 4.8%; Activity (Caco-2 [13]): 18.1%; Activity (Caco-2 [26]): 14.6%; Papp B→A at 3 h, 26.5 µM [27]: 18.7 nm/s |
| 72 | CC(C)[C@H](N)C(=O)NCCCCCC(=O)O[C@@H]1Cc2ccccc2[C@@H]1NC(=O)[C@H](Cc1ccccc1)C[C@H](O)CN1CCN(Cc2cccnc2)C[C@H]1C(=O)NC(C)(C)C.O=C(O)C(F)(F)F | 0.036 | > 10 | 47 | 0.23 | >=3.6 | 10 | Activity (Caco-2 [28]): 9%; Papp B→A at 3 h, 185 µM [29]: 29.2 nm/s |
| 68 | CC(C)[C@H](N)C(=O)O[C@@H](C[C@@H](Cc1ccccc1)C(=O)N[C@H]1c2ccccc2C[C@H]1O)CN1CCN(Cc2cccnc2)C[C@H]1C(=O)NC(C)(C)C.O=C(O)C(F)(F)F | 0.09 | > 100 | 100 | 0.027 | >=9 | 1 | Activity (Caco-2 [23]): 14%; Papp A→B at 3 h, 177 µM [30]: 51.3 nm/s; Activity (Caco-2 [26]): 14.6%; Papp B→A at 3 h, 177 µM [31]: 70.8 nm/s |
| 82 | Cc1c(OC(=O)CCCCCNC(=O)[C@@H](N)C(C)C)cccc1C(=O)N[C@@H](CSc1ccccc1)[C@@H](CN1C[C@H]2CCCC[C@H]2C[C@H]1C(=O)NC(C)(C)C)OC(=O)CCCCCNC(=O)[C@H](N)C(C)C.O=C(O)C(F)(F)F.O=C(O)C(F)(F)F | 15.5 | 5 | 4.8 |  | 7750 |  |  |
|  | Cc1c(O)cccc1C(=O)N[C@@H](CSc1ccccc1)[C@H](O)CN1C[C@H]2CCCC[C@H]2C[C@H]1C(=O)NC(C)(C)C | 0.002 |  |  |  |  |  | Activity (Caco-2 [32]): 2.7%; Papp A→B at 3 h, 80 µM [33]: 10.3 nm/s; Activity (Caco-2 [34]): 6.3%; Papp B→A at 3 h, 80 µM [35]: 25.1 nm/s |
|  | CC(C)(C)NC(=O)[C@@H]1CN(Cc2cccnc2)CCN1C[C@@H](O)C[C@@H](Cc1ccccc1)C(=O)N[C@H]1c2ccccc2C[C@H]1O.O=S(=O)(O)O [INDINAVIR SULFATE] | ≤ 0.01 | > 100 | > 100 | 0.022 |  |  | Papp A→B at 3 h, 175 µM [36]: 10.3 nm/s; Papp B→A at 3 h, 175 µM [37]: 155 nm/s |
